Laboratory results taken from patent US5453438A, “Hydroxamic acid based collagenase inhibitors” (British Biotech Pharmaceuticals Limited, priority 1989, dated 1995).

Target: collagenase
Test: Collagenase inhibition activity (acetylated 14C collagen hydrolysis, Cawston and Barrett)
Type: biochemical
Conditions: 37°, 16 hours, pH 7.5, read-out: IC50 (inhibitor concentration effecting 50% inhibition of the collagenase)
Experimental: The potency of compounds of general formula I to act as inhibitors of collagenase (a metalloprotease involved in tissue degradation) was determined by the procedure of Cawston and Barrett, (Anal. Biochem., 99, 340-345, 1979) and their potency to act as inhibitors of stromelysin was determined using the procedure of Cawston et al (Biochem. J., 195, 159-165 1981), both of which techniques are to be described more fully in the examples and, to the extent that the law allows, are incorporated by reference herein.
The potency of compounds of general formula I to act as inhibitors of collagenase (a metalloprotease involved in tissue degradation) was determined by the procedure of Cawston and Barrett, (Anal. Biochem., 99, 340-345, 1979), hereby incorporated by reference, whereby a 1 mM solution of the inhibitor being tested or dilutions thereof was incubated at 37° for 16 hours with collagen and collagenase (buffered with 25 mM Hepes, pH 7.5 containing 5 mM CaCl2, 0.05% Brij 35 and 0.02% NAN3). The collagen was acetylated ^14C collagen prepared by the method of Cawston and Murphy (Methods in Enzymology, 80, 711, 1981), hereby incorporated by reference. The samples were centrifuged to sediment undigested collagen and an aliquot of the radioactive supernatant removed for assay on a scintillation counter as a measure of hydrolysis. The collagenase activity in the presence of 1 mM inhibitor, or a dilution thereof, was compared to activity in a control devoid of inhibitor and the results reported below as that inhibitor concentration effecting 50% inhibition of the collagenase (IC50).

Compound | IC50
CC(C)C[C@H](CC(=O)NO)C(=O)N[C@@H](Cc1ccccc1)C(=O)N(C)CCO [Example 2, [4-(N-Hydroxyamino)-2R-isobutylsuccinyl]-L-phenylalanine-N-(2-hydroxyethyl)-N-methylamide] | 0.2 µM
CCSCCNC(=O)[C@H](Cc1ccccc1)NC(=O)[C@@H](CC(=O)NO)CC(C)C [Example 3, [4-(N-Hydroxyamino)-2R-isobutylsuccinyl]-L-phenylalanine-N-(2-ethylthioethyl) amide] | 0.02 µM
CC(=O)NCCNC(=O)[C@H](Cc1ccccc1)NC(=O)[C@@H](CC(=O)NO)CC(C)C [Example 4, [4-(N-Hydroxyamino)-2R-isobutylsuccinyl]-L-phenylalanine-N-(2-N-acetylethyl) amide] | 0.09 µM
